biological target: T1, histamine H3 receptor (Rattus norvegicus, UniProt Q9QYN8); experiment: Histamine H3 receptor binding assay ([3H]-Nα-methylhistamine binding to rat striatum homogenate); settings: 1 μmol/L test compound; [3H]-Nα-methylhistamine 1 nmol/L; striata of Sprague-Dawley male rats, 25° C., 1 hour; read-out: Inhibition ratio of [3H]-Nα-methylhistamine binding
T1 construct: from tissue; host or cells: rat striatum (Sprague-Dawley, male, 6 weeks), membrane homogenate
Protocol: To the striata of Sprague-Dawley male rats (6 weeks of age), a 10-fold volume of lysis buffer {50 mmol/L [[…] (Tris)]/HCl (pH 7.4), 5 mmol/L ethylenediaminetetraacetic acid (EDTA), a protease inhibitor mixture [1 mg/mL phenylmethylsulfonyl fluoride (PMSF), 1 μg/mL pepstatin A, 1 μg/mL leupeptin, 1 μg/mL chymostatin]} was added and the striata were homogenized. The resulting homogenate was centrifuged (30,000×g, 4° C., 30 min), and the obtained precipitate was resuspended in a 10-fold volume of lysis buffer, followed by centrifugation under the same condition. To the obtained precipitate, a 3-fold volume of lysis buffer was added to suspend the precipitate, and the resulting tissue homogenate was used for a test.
A test compound was dissolved in an assay buffer [50 mmol/L Tris/HCl (pH 7.4), 5 mmol/L EDTA], and [^3H]-N^α-methylhistamine (1 nmol/L) and the tissue homogenate (20 μg, in terms of protein amount) were added thereto, and then, the mixture was incubated at 25° C. for 1 hour. Then, the reaction was terminated by rapid suction filtration on a glass filter [GF/B: Whatman, previously soaked in 0.3 w/v % polyethylenimine for about 30 min]. Then, the glass filter was washed three times with 3 mL of assay buffer. This glass filter was transferred into a scintillation vial and dried at 60° C. for 30 minutes. Then, 0.5 mL of Ultimagold (Perkin Elmer) was added thereto, and the radioactivity (binding amount of [^3H]-N^α-methylhistamine) was measured using a liquid scintillation counter. The obtained value was used as a binding amount in the presence of the test compound. The same procedure as described above was carried out in the absence of the test compound, and the binding amount of [^3H]-N^α-methylhistamine obtained at this time was used as a binding amount in the absence of the test compound. Further, the binding amount of [^3H]-N^α-methylhistamine obtained in the presence of 10 μmol/L thioperamide was used as a non-specific binding amount. An inhibitory action of [^3H]-N^α-methylhistamine binding was represented by an inhibition ratio in terms of 1 μmol/L of the test compound calculated by the following Equation (1).
Inhibition ratio(%)={1−[(Binding amount in the presence of test compound)−(Non-specific binding amount)]/[(Binding amount in the absence of test compound)−(Non-specific binding amount)]}×100 (1)

T1 sequence (Q9QYN8 whole entry): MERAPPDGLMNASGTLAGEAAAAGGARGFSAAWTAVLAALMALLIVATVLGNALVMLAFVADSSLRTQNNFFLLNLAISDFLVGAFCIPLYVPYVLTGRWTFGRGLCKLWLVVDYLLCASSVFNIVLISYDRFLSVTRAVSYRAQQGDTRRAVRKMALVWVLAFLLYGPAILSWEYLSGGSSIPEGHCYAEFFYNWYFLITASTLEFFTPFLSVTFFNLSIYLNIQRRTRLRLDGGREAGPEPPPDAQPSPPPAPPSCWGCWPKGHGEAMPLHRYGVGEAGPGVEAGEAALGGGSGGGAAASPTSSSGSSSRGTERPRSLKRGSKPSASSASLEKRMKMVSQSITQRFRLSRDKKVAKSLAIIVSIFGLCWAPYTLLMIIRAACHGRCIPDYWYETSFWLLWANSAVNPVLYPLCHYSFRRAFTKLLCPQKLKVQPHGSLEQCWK

Inhibition at 1 µM, ≥ 80%:
CC1CC(C)CN(CCCN2CCN(CCCN3CCCCC3C)C2=C(C#N)C#N)C1 (stereo not drawn) [Compound 104, {1-[3-(3,5-Dimethylpiperidino)propyl]-3-[3-(2-methylpiperidino)propyl]imidazolidin-2-ylidene}malononitrile]
N#CC(C#N)=C1N(CCCCN2CCCCC2)CCN1CCCCN1CCCCC1 [Compound 9, [1,3-Bis(4-piperidinobutyl)imidazolidin-2-ylidene]malononitrile]
CN1CCN(CCCN2CCN(CCCN3CCCCC3)C2=C(C#N)C#N)CC1 [Compound 76, {1-[3-(4-Methylpiperazin-1-yl)propyl]-3-(3-piperidinopropyl)imidazolidin-2-ylidene}malononitrile]
CC1CCCN1CCCN1CCCN(CCCN2CCCC2C)C1=C(C#N)C#N (stereo not drawn) [Compound 123, {1,3-Bis[3-(2-methylpyrrolidin-1-yl)propyl]hexahydropyrimidin-2-ylidene}malononitrile]
CC1CCCN1CC1CCN(C(=C(C#N)C#N)N(C)CCN2CCC[C@@H]2C)CC1 (stereo partly drawn) [Compound 157, ({N-methyl-N-[2-((S)-2-methylpyrrolidin-1-yl)ethyl]amino}[4-(2-methylpyrrolidin-1-ylmethyl)piperidino]methylene)malononitrile]
N#CC(C#N)=C(NCCCN1CCC(F)(F)C1)N1CCC(N2CCCCC2)CC1 [Compound 168, {[3-(3,3-Difluoropyrrolidin-1-yl)propylamino](4-piperidinopiperidino)methylene}malononitrile]
C[C@H]1CCCN1CCCN1C(=C(C#N)C#N)N(CCCN2CCC[C@@H]2C)c2ccccc21 [Compound 125, {1,3-Bis[3-((S)-2-methylpyrrolidin-1-yl)propyl]benzimidazolidin-2-ylidene}malononitrile]
N#CN=C1N(CCCN2CCCCC2)CCN1CCCN1CCCCC1 [Compound 139, 1,3-Bis(3-piperidinopropyl)imidazolidin-2-ylidene Cyanoamide Difumarate]
N#CC(C#N)=C1N(CCCN2CCCCC2)CCN1CCCN1CCC(O)C1 (stereo not drawn) [Compound 101, {1-[3-(3-Hydroxypyrrolidin-1-yl)propyl]-3-(3-piperidinopropyl)imidazolidin-2-ylidene}malononitrile]
N#CC(C#N)=C1N(CCCCN2CCCCC2)CCN1CCCN1CCCCC1 [Compound 8, [1-(4-Piperidinobutyl)-3-(3-piperidinopropyl)imidazolidin-2-ylidene]malononitrile]
C[C@@H]1CCCN1CCN1CCN(CCCN2CCC[C@@H]2C)C1=C(C#N)S(=O)(=O)c1ccccc1 [Compound 243, {3-[2-((R)-2-methylpyrrolidin-1-yl)ethyl]-1-[3-((S)-2-methylpyrrolidin-1-yl)propyl]imidazolidin-2-ylidene}benzenesulfonylacetonitrile]
CC1CCCN1CC1CCN(C(NCCN2CCCCC2)=C(C#N)C#N)CC1 (stereo not drawn) [Compound 148, {[4-(2-Methylpyrrolidin-1-ylmethyl)piperidino](2-piperidinoethylamino)methylene}malononitrile]
CC1CCCN1CCCN1CCN(CCCN2CC=CCC2)C1=C(C#N)C#N (stereo not drawn) [Compound 92, {1-[3-(1,2,3,6-Tetrahydropyridin-1-yl)propyl]-3-[3-(2-methylpyrrolidin-1-yl)propyl]imidazolidin-2-ylidene}malononitrile]
CC1CCCN1CCN1CCN(CCCN2CCCC2)C1=C(C#N)C#N (stereo not drawn) [Compound 54, {1-[2-(2-Methylpyrrolidin-1-yl)ethyl]-3-[3-(3-pyrrolidin-1-yl)propyl]imidazolidin-2-ylidene}malononitrile]
CCN(CC)CCN1CCN(CCCN2CCCCC2)C1=C(C#N)C#N [Compound 49, [1-(2-Diethylaminoethyl)-3-(3-piperidinopropyl)imidazolidin-2-ylidene]malononitrile]
N#CC(C#N)=C1N(CCCN2CC=CCC2)CCN1CCCN1CCCC1 [Compound 89, {1-[3-(1,2,3,6-Tetrahydropyridin-1-yl)propyl]-3-[3-(pyrrolidin-1-yl)propyl]imidazolidin-2-ylidene}malononitrile]
C[C@@H]1CCCN1CCCN1CCN(CCCN2CCC[C@H]2C)C1=C(C#N)C#N [Compound 116, {1,3-Bis[3-((R)-2-methylpyrrolidin-1-yl)propyl]imidazolidin-2-ylidene}malononitrile Difumarate]
CC1CC(C)CN(CCCN2CCN(CCN3CC(C)CC(C)C3)C2=C(C#N)C#N)C1 (stereo not drawn) [Compound 17, {1-[2-(3,5-Dimethylpiperidino)ethyl]-3-[3-(3,5-dimethylpiperidino)propyl]imidazolidin-2-ylidene}malononitrile]
CC1CCCN1CCCNC(=C(C#N)C#N)N1CCC(CN2CCCCC2)CC1 (stereo not drawn) [Compound 173, {[3-(2-Methylpyrrolidin-1-yl)propylamino](4-piperidinomethylpiperidino)methylene}malononitrile]
N#CC(C#N)=C1N(CCCN2CCCCC2)CCN1CCCN1CCCC1 [Compound 95, {1-(3-Piperidinopropyl)-3-[3-(pyrrolidin-1-yl)propyl]imidazolidin-2-ylidene}malononitrile]
C[C@@H]1CCC[C@H](C)N1CCCN1CCN(CCN2CCCCC2)C1=C(C#N)C#N [Compound 50, {1-[3-(Cis-2,6-dimethylpiperidino)propyl]-3-(2-piperidinoethyl)imidazolidin-2-ylidene}malononitrile Difumarate]
CC1CCCN1CCCN1CCN(CCCN2CCCC2)C1=C(C#N)C#N (stereo not drawn) [Compound 97, {1-[3-(2-Methylpyrrolidin-1-yl)propyl]-3-[3-(pyrrolidin-1-yl)propyl]imidazolidin-2-ylidene}malononitrile]
CC1CC(C)CN(CCCN2CCN(CCCN3CC(C)CC(C)C3)C2=C(C#N)C#N)C1 (stereo not drawn) [Compound 109, {1,3-Bis[3-(3,5-dimethylpiperidino)propyl]imidazolidin-2-ylidene}malononitrile]
CC1CCN(CCCN2CCN(CCCN3CC(C)CC(C)C3)C2=C(C#N)C#N)CC1 (stereo not drawn) [Compound 106, {1-[3-(3,5-Dimethylpiperidino)propyl]-3-[3-(4-methylpiperidino)propyl]imidazolidin-2-ylidene}malononitrile]
CC1CCCN1CCCN1CCN(CCCN2CCCC2C)C1=O (stereo not drawn) [Compound 141, 1,3-Bis[3-(2-methylpyrrolidin-1-yl)propyl]imidazolidine-2-one]
CC1CCCCN1CCCN1CCN(CCCN2CCCC2)C1=C(C#N)C#N (stereo not drawn) [Compound 93, {1-[3-(2-Methylpiperidino)propyl]-3-[3-(pyrrolidin-1-yl)propyl]imidazolidin-2-ylidene}malononitrile]
N#CC(C#N)=C1N(CCCN2CCc3ccccc3C2)CCN1CCN1CCCCC1 [Compound 52, {1-[3-(1,2,3,4-Tetrahydroisoquinolin-2-yl)propyl]-3-(2-piperidinoethyl)imidazolidin-2-ylidene}malononitrile]
CCN(CC)CCCN1CCN(CCN2CCCCC2)C1=C(C#N)C#N [Compound 48, [1-(3-Diethylaminopropyl)-3-(2-piperidinoethyl)imidazolidin-2-ylidene]malononitrile]
CC1CC(C)CN(CCCN2CCN(CCCN3C(C)CCCC3C)C2=C(C#N)C#N)C1 (stereo not drawn) [Compound 108, {1-[3-(2,6-Dimethylpiperidino)propyl]-3-[3-(3,5-dimethylpiperidino)propyl]imidazolidin-2-ylidene}malononitrile]
C[C@@H]1CCCN1CCN(C)C(=C(C#N)C#N)N1CCC(CN2CCCCC2)CC1 [Compound 151, ({N-methyl-N-[2-((R)-2-methylpyrrolidin-1-yl)ethyl]amino}(4-piperidinomethylpiperidino)methylene)malononitrile]

From patent US20090181948A1, “DIAMINE DERIVATIVE” (KYOWA HAKKO KOGYO CO., LTD., priority 2005, published 2009)
